Measured values reported in patent US20140212495A1, “NANOPARTICULATE COMPOSITIONS OF TUBULIN INHIBITOR COMPOUNDS” (Ziopharm Oncology, Inc., priority 2004, published 2014).
Like-named read-outs stand apart in the source and are kept apart here.

Legend:
tubulin = conditions: cited from earlier work
[1] = test system: a variety of malignancies (e.g., prostate, brain, breast, pancreas, and colon); conditions: cited from earlier work
[2] = test system: cell cycle progression at metaphase; conditions: cited from earlier work
[3] = 4-week subchronic toxicity study in dogs, D-24851 plasma pharmacokinetics; assay type: in vivo; conditions: for AUC / Cmax / Tmax / half-life / AUC(0-t): dog, plasma, iv; for AUC(0-t): read-out: AUC0-tlast,md
Method: Blood samples from all animals were taken at the following times: 1 h, 2 h, 4 h, 8 h, 16 h, 24 h, 36 h and 48 hours after application. The concentration levels of D-24851 were measured using HPLC.

[4] = cited from earlier work

O=C(Nc1ccncc1)C(=O)c1cn(Cc2ccc(Cl)cc2)c2ccccc12 [Composition D-24851, N-(Pyridin-4-yl)-[1-(4-chlorobenzyl)-indol-3-yl]glyoxylic acid amide]
overlap of binding site with tubulin-binding sites of vincristine or colchicine (tubulin): does not appear to overlap
effect on microtubules (tubulin; in tumor cells, as well as in a cell-free system): destabilizes microtubules
antitumor activity in vitro [1]: significant antitumor activity
effect on cell cycle progression [2]: selectively blocks cell cycle progression at metaphase
dose dependence of plasma concentrations ([3]; Composition 4 i.v. 2.61, 5.62 and 12.1 mg/kg): depend from the dose
plasma profiles day 1 versus day 27 ([3]; Composition 4 i.v., 4 weeks): of similar magnitude at day 1 and day 27 dosings
CL/f ([3]; Day 1, Composition 4 i.v. 5.62 mg/kg, Males, Meanar n=3): 38.1 mL/min/kg
CL/f ([3]; Day 1, Composition 4 i.v. 12.1 mg/kg, Females, Meanar n=3): 31.1 mL/min/kg
CL/f ([3]; Day 1, Composition 4 i.v. 12.1 mg/kg, Males, Meanar n=3): 29.5 mL/min/kg
CL/f ([3]; Day 27, Composition 4 i.v. 5.62 mg/kg, Males, Meanar n=3): 38.1 mL/min/kg
CL/f ([3]; Day 27, Composition 4 i.v. 12.1 mg/kg, Females, Meanar n=3): 31.1 mL/min/kg
CL/f ([3]; Day 27, Composition 4 i.v. 12.1 mg/kg, Males, Meanar n=3): 29.5 mL/min/kg
AUC ([3]; female, 2.61 mg/kg, Day 1, Composition 4 i.v. 2.61 mg/kg, Females, Meanar n=3, read-out: AUCτ, sd): 3400 ng·h/mL
Cmax ([3]; female, 2.61 mg/kg, Day 1, Composition 4 i.v. 2.61 mg/kg, Females, Meanar n=3, read-out: Cmax, sd): 210 ng/mL
Tmax ([3]; female, 2.61 mg/kg, Day 1, Composition 4 i.v. 2.61 mg/kg, Females, Meanar n=3, read-out: tmax, sd): 1.67 h
half-life ([3]; female, 2.61 mg/kg, Day 1, Composition 4 i.v. 2.61 mg/kg, Females, only for orientating, unsufficient curve fitting): 41 h
AUC ([3]; female, 2.61 mg/kg, Day 27, Composition 4 i.v. 2.61 mg/kg, Females, Meanar n=3, read-out: AUCτ, md): 1410 ng·h/mL
Cmax ([3]; female, 2.61 mg/kg, Day 27, Composition 4 i.v. 2.61 mg/kg, Females, Meanar n=3, read-out: Cmax, md): 148 ng/mL
Tmax ([3]; female, 2.61 mg/kg, Day 27, Composition 4 i.v. 2.61 mg/kg, Females, Meanar n=3, read-out: tmax, md): 2.33 h
half-life ([3]; female, 2.61 mg/kg, Day 27, Composition 4 i.v. 2.61 mg/kg, Females, only for orientating, insufficient curve fitting): 28.3 h
AUC(0-t) ([3]; female, 2.61 mg/kg): 1100 ng·h/mL
AUC ([3]; female, 5.62 mg/kg, Day 1, Composition 4 i.v. 5.62 mg/kg, Females, Meanar n=3, read-out: AUCτ, sd): 3540 ng·h/mL
Cmax ([3]; female, 5.62 mg/kg, Day 1, Composition 4 i.v. 5.62 mg/kg, Females, Meanar n=3, read-out: Cmax, sd): 279 ng/mL
half-life ([3]; female, 5.62 mg/kg, Day 1, Composition 4 i.v. 5.62 mg/kg, Females, only for orientating, unsufficient curve fitting): 20 h
half-life ([3]; female, 5.62 mg/kg, Day 27, Composition 4 i.v. 5.62 mg/kg, Females, Meanar n=3): 14.8 h
AUC ([3]; female, 5.62 mg/kg, Day 27, Composition 4 i.v. 5.62 mg/kg, Females, Meanar n=3, read-out: AUCτ, md): 2960 ng·h/mL
Cmax ([3]; female, 5.62 mg/kg, Day 27, Composition 4 i.v. 5.62 mg/kg, Females, Meanar n=3, read-out: Cmax, md): 315 ng/mL
Tmax ([3]; female, 5.62 mg/kg, Day 27, Composition 4 i.v. 5.62 mg/kg, Females, Meanar n=3, read-out: tmax, md): 2.33 h
AUC(0-t) ([3]; female, 5.62 mg/kg): 2740 ng·h/mL
Tmax ([3]; female, 5.62 mg/kg, read-out: tmax, sd): 2 h
half-life ([3]; female, 12.1 mg/kg, Day 1, Composition 4 i.v. 12.1 mg/kg, Females, Meanar n=3): 11.6 h
AUC ([3]; female, 12.1 mg/kg, Day 1, Composition 4 i.v. 12.1 mg/kg, Females, Meanar n=3, read-out: AUCsd): 8250 ng·h/mL
AUC ([3]; female, 12.1 mg/kg, Day 1, Composition 4 i.v. 12.1 mg/kg, Females, Meanar n=3, read-out: AUCτ, sd): 7670 ng·h/mL
Cmax ([3]; female, 12.1 mg/kg, Day 1, Composition 4 i.v. 12.1 mg/kg, Females, Meanar n=3, read-out: Cmax, sd): 860 ng/mL
Tmax ([3]; female, 12.1 mg/kg, Day 1, Composition 4 i.v. 12.1 mg/kg, Females, Meanar n=3, read-out: tmax, sd): 2.33 h
half-life ([3]; female, 12.1 mg/kg, Day 27, Composition 4 i.v. 12.1 mg/kg, Females, Meanar n=3): 24.2 h
AUC ([3]; female, 12.1 mg/kg, Day 27, Composition 4 i.v. 12.1 mg/kg, Females, Meanar n=3, read-out: AUCτ, md): 4850 ng·h/mL
Cmax ([3]; female, 12.1 mg/kg, Day 27, Composition 4 i.v. 12.1 mg/kg, Females, Meanar n=3, read-out: Cmax, md): 329 ng/mL
Tmax ([3]; female, 12.1 mg/kg, Day 27, Composition 4 i.v. 12.1 mg/kg, Females, Meanar n=3, read-out: tmax, md): 2.67 h
AUC(0-t) ([3]; female, 12.1 mg/kg): 4850 ng·h/mL
Cmax ([3]; male, 2.61 mg/kg, Day 1, Composition 4 i.v. 2.61 mg/kg, Males, Meanar n=3, read-out: Cmax, sd): 147 ng/mL
Tmax ([3]; male, 2.61 mg/kg, Day 1, Composition 4 i.v. 2.61 mg/kg, Males, Meanar n=3, read-out: tmax, sd): 1.67 h
half-life ([3]; male, 2.61 mg/kg, Day 27, Composition 4 i.v. 2.61 mg/kg, Males, Meanar n=3): 40.7 h
AUC ([3]; male, 2.61 mg/kg, Day 27, Composition 4 i.v. 2.61 mg/kg, Males, Meanar n=3, read-out: AUCτ, md): 1740 ng·h/mL
Cmax ([3]; male, 2.61 mg/kg, Day 27, Composition 4 i.v. 2.61 mg/kg, Males, Meanar n=3, read-out: Cmax, md): 224 ng/mL
Tmax ([3]; male, 2.61 mg/kg, Day 27, Composition 4 i.v. 2.61 mg/kg, Males, Meanar n=3, read-out: tmax, md): 1.33 h
AUC(0-t) ([3]; male, 2.61 mg/kg): 1450 ng·h/mL
half-life ([3]; male, 5.62 mg/kg, Day 1, Composition 4 i.v. 5.62 mg/kg, Males, Meanar n=3): 6.63 h
AUC ([3]; male, 5.62 mg/kg, Day 1, Composition 4 i.v. 5.62 mg/kg, Males, Meanar n=3, read-out: AUCsd): 2470 ng·h/mL
AUC ([3]; male, 5.62 mg/kg, Day 1, Composition 4 i.v. 5.62 mg/kg, Males, Meanar n=3, read-out: AUCτ, sd): 2590 ng·h/mL
Cmax ([3]; male, 5.62 mg/kg, Day 1, Composition 4 i.v. 5.62 mg/kg, Males, Meanar n=3, read-out: Cmax, sd): 241 ng/mL
Cmax ([3]; male, 5.62 mg/kg, Day 27, Composition 4 i.v. 5.62 mg/kg, Males, Meanar n=3, read-out: Cmax, md): 186 ng/mL
Tmax ([3]; male, 5.62 mg/kg, Day 27, Composition 4 i.v. 5.62 mg/kg, Males, Meanar n=3, read-out: tmax, md): 2.33 h
half-life ([3]; male, 5.62 mg/kg, Day 27, Composition 4 i.v. 5.62 mg/kg, Males, marked ** (footnote not given)): 5.1 h
AUC(0-t) ([3]; male, 5.62 mg/kg): 1320 ng·h/mL
AUC ([3]; male, 5.62 mg/kg, read-out: AUCτ, md): 1850 ng·h/mL
Tmax ([3]; male, 5.62 mg/kg, read-out: tmax, sd): 2 h
half-life ([3]; male, 12.1 mg/kg, Day 1, Composition 4 i.v. 12.1 mg/kg, Males, Meanar n=3): 8.74 h
AUC ([3]; male, 12.1 mg/kg, Day 1, Composition 4 i.v. 12.1 mg/kg, Males, Meanar n=3, read-out: AUCsd): 6980 ng·h/mL
AUC ([3]; male, 12.1 mg/kg, Day 1, Composition 4 i.v. 12.1 mg/kg, Males, Meanar n=3, read-out: AUCτ, sd): 6870 ng·h/mL
Cmax ([3]; male, 12.1 mg/kg, Day 1, Composition 4 i.v. 12.1 mg/kg, Males, Meanar n=3, read-out: Cmax, sd): 592 ng/mL
Tmax ([3]; male, 12.1 mg/kg, Day 1, Composition 4 i.v. 12.1 mg/kg, Males, Meanar n=3, read-out: tmax, sd): 2.67 h
half-life ([3]; male, 12.1 mg/kg, Day 27, Composition 4 i.v. 12.1 mg/kg, Males, Meanar n=3): 11.9 h
AUC ([3]; male, 12.1 mg/kg, Day 27, Composition 4 i.v. 12.1 mg/kg, Males, Meanar n=3, read-out: AUCτ, md): 5620 ng·h/mL
Cmax ([3]; male, 12.1 mg/kg, Day 27, Composition 4 i.v. 12.1 mg/kg, Males, Meanar n=3, read-out: Cmax, md): 435 ng/mL
Tmax ([3]; male, 12.1 mg/kg, Day 27, Composition 4 i.v. 12.1 mg/kg, Males, Meanar n=3, read-out: tmax, md): 2.67 h
AUC(0-t) ([3]; male, 12.1 mg/kg): 5560 ng·h/mL
neurological symptoms ([4]; animal experiments): No neurological symptoms
in-vivo antineoplastic efficacy ([4]; animals): high in-vivo antineoplastic efficacy
tolerability ([4]; preclinical experiments in rodents): very well tolerated at highly effective doses
